Patent US20250255867A1 (Kadmon Corporation, LLC, priority 2022, published 2025)

Tested on: patients with cGVHD
Assay: Example 1: pulmonary function (percent predicted FEV1, FVC, DLco, TLC, RV) change from baseline
Assay type: in vivo, human
Method: Change From Baseline in Percent Predicted Forced Expiratory Volume in 1 Second (FEV1) at Each Specified Time Points. FEV1 was the volume of air exhaled from the lungs in the first second of a forced expiration as measured by spirometer. Baseline value was defined as valid and last non-missing value obtained within 28 days prior to participant receiving first study medication. EOT visit was performed within 3 days after the participant's last dose of study drug. […] Analysis was performed on mITT population. Here, ‘number analyzed’=participants with available data for each specified category. Here, ‘0’ in the number analyzed field signifies that none of the participants were available for the analysis at the specified time points.
Change From Baseline in Percent Predicted Forced Vital Capacity (FVC) at Each Specified Time Points. FVC was the total amount of air (in liters) exhaled from the lungs during the lung function test measured by spirometer which assessed the change in lung function related to the disease status. Baseline value was defined as valid and last non-missing value obtained within 28 days prior to participant receiving first study medication. EOT visit was performed within 3 days after the participant's last dose of study drug. […] Analysis was performed on mITT population. Here, ‘number analyzed’=participants with available data for each specified category. Here, ‘0’ in the number analyzed field signifies that none of the participants were available for the analysis at the specified time points.
Change From Baseline in Percent Predicted Hemoglobin (HGB) Corrected Diffusing Capacity of Lung for Carbon Monoxide (DLco) at Each Specified Time Points. DLco is a measurement of the ability of the lungs to transfer gases from the air to the blood. Change from baseline in diffusing capacity of the lung for carbon monoxide (percent predicted hemoglobin level corrected) was reported for this measure. Baseline value was defined as valid and last non-missing value obtained within 28 days prior to participant receiving first study medication. EOT visit was performed within 3 days after the participant's last dose of study drug. […] Analysis was performed on mITT population. Here, ‘number analyzed’=participants with available data for each specified category. Here, ‘0’ in the number analyzed field signifies that none of the participants were available for the analysis at the specified time points.
Change From Baseline in Percent Predicted Total Lung Capacity (TLC) at Each Specified Time Points. TLC is the volume of air in the lungs upon the maximum effort of inspiration. Baseline value was defined as valid and last non-missing value obtained within 28 days prior to participant receiving first study medication. EOT visit was performed within 3 days after the participant's last dose of study drug. […] Analysis was performed on mITT population. Here, ‘number analyzed’=participants with available data for each specified category.

In the case of `CC(C)NC(=O)COc1cccc(-c2nc(Nc3ccc4[nH]ncc4c3)c3ccccc3n2)c1` [Belumosudil, 2-{3-[4-(1H-indazol-5-ylamino)-2-quinazolinyl]phenoxy}-N-(propan-2-yl) acetamide], the “Change From Baseline in Percent Predicted Residual Volume (RV), Mean (Standard Deviation)” value (Cohort 1: 200 mg QD, Cycle 3, Day 1, n=14) was 0.2 (22.2) percent predicted RV, the “Change From Baseline in Percent Predicted Residual Volume (RV), Mean (Standard Deviation)” value (Cohort 1: 200 mg QD, Cycle 5, Day 1, n=13) was 5.2 (24.5) percent predicted RV and the “Change From Baseline in Percent Predicted Residual Volume (RV), Mean (Standard Deviation)” value (Cohort 1: 200 mg QD, Cycle 7, Day 1, n=11) was 4.9 (29.1) percent predicted RV. The “Change From Baseline in Percent Predicted Residual Volume (RV), Mean (Standard Deviation)” value (Cohort 1: 200 mg QD, Cycle 9, Day 1, n=9) was 6.4 (27.4) percent predicted RV, the “Change From Baseline in Percent Predicted Residual Volume (RV), Mean (Standard Deviation)” value (Cohort 1: 200 mg QD, Cycle 11, Day 1, n=7) was 22.1 (29.6) percent predicted RV and the “Change From Baseline in Percent Predicted Residual Volume (RV), Mean (Standard Deviation)” value (Cohort 1: 200 mg QD, Cycle 12, Day 1, n=1) was −28.0 (—) percent predicted RV. The “Change From Baseline in Percent Predicted Residual Volume (RV), Mean (Standard Deviation)” value (Cohort 1: 200 mg QD, Cycle 13, Day 1, n=7) was 20.3 (19.9) percent predicted RV, the “Change From Baseline in Percent Predicted Residual Volume (RV), Mean (Standard Deviation)” value (Cohort 1: 200 mg QD, Cycle 14, Day 1, n=1) was 78.0 (—) percent predicted RV and the “Change From Baseline in Percent Predicted Residual Volume (RV), Mean (Standard Deviation)” value (Cohort 1: 200 mg QD, Cycle 15, Day 1, n=6) was 20.3 (27.4) percent predicted RV. The “Change From Baseline in Percent Predicted Residual Volume (RV), Mean (Standard Deviation)” value (Cohort 1: 200 mg QD, Cycle 16, Day 1, n=1) was 0.0 (—) percent predicted RV, the “Change From Baseline in Percent Predicted Residual Volume (RV), Mean (Standard Deviation)” value (Cohort 1: 200 mg QD, Cycle 17, Day 1, n=5) was 13.6 (27.8) percent predicted RV and the “Change From Baseline in Percent Predicted Residual Volume (RV), Mean (Standard Deviation)” value (Cohort 1: 200 mg QD, Cycle 19, Day 1, n=5) was 5.4 (28.7) percent predicted RV. The “Change From Baseline in Percent Predicted Residual Volume (RV), Mean (Standard Deviation)” value (Cohort 1: 200 mg QD, Cycle 21, Day 1, n=3) was 8.3 (10.0) percent predicted RV, the “Change From Baseline in Percent Predicted Residual Volume (RV), Mean (Standard Deviation)” value (Cohort 1: 200 mg QD, Cycle 23, Day 1, n=3) was 0.3 (5.1) percent predicted RV and the “Change From Baseline in Percent Predicted Residual Volume (RV), Mean (Standard Deviation)” value (Cohort 1: 200 mg QD, Cycle 24, Day 1, n=1) was −4.0 (—) percent predicted RV. The “Change From Baseline in Percent Predicted Residual Volume (RV), Mean (Standard Deviation)” value (Cohort 1: 200 mg QD, Cycle 25, Day 1, n=2) was 1.0 (9.9) percent predicted RV, the “Change From Baseline in Percent Predicted Residual Volume (RV), Mean (Standard Deviation)” value (Cohort 1: 200 mg QD, Cycle 26, Day 1, n=1) was −3.0 (—) percent predicted RV and the “Change From Baseline in Percent Predicted Residual Volume (RV), Mean (Standard Deviation)” value (Cohort 1: 200 mg QD, Cycle 27, Day 1, n=2) was 19.5 (41.7) percent predicted RV. The “Change From Baseline in Percent Predicted Residual Volume (RV), Mean (Standard Deviation)” value (Cohort 1: 200 mg QD, Cycle 29, Day 1, n=2) was −13.0 (42.4) percent predicted RV, the “Change From Baseline in Percent Predicted Residual Volume (RV), Mean (Standard Deviation)” value (Cohort 1: 200 mg QD, Cycle 37, Day 1, n=1) was −54.0 (—) percent predicted RV and the “Change From Baseline in Percent Predicted Residual Volume (RV), Mean (Standard Deviation)” value (Cohort 1: 200 mg QD, Cycle 38, Day 1, n=1) was 8.0 (—) percent predicted RV. The “Change From Baseline in Percent Predicted Residual Volume (RV), Mean (Standard Deviation)” value (Cohort 1: 200 mg QD, Cycle 39, Day 1, n=2) was 43.0 (89.1) percent predicted RV, the “Change From Baseline in Percent Predicted Residual Volume (RV), Mean (Standard Deviation)” value (Cohort 1: 200 mg QD, Cycle 40, Day 1, n=1) was −1.0 (—) percent predicted RV and the “Change From Baseline in Percent Predicted Residual Volume (RV), Mean (Standard Deviation)” value (Cohort 1: 200 mg QD, Cycle 41, Day 1, n=1) was 80.0 (—) percent predicted RV. For the same molecule, the “Change From Baseline in Percent Predicted Residual Volume (RV), Mean (Standard Deviation)” value (Cohort 1: 200 mg QD, Cycle 43, Day 1, n=1) was 58.0 (—) percent predicted RV, the “Change From Baseline in Percent Predicted Residual Volume (RV), Mean (Standard Deviation)” value (Cohort 1: 200 mg QD, Cycle 47, Day 1, n=1) was 42.0 (—) percent predicted RV and the “Change From Baseline in Percent Predicted Residual Volume (RV), Mean (Standard Deviation)” value (Cohort 1: 200 mg QD, Cycle 48, Day 1, n=1) was −50.0 (—) percent predicted RV. The “Change From Baseline in Percent Predicted Residual Volume (RV), Mean (Standard Deviation)” value (Cohort 1: 200 mg QD, Cycle 49, Day 1, n=1) was −14.0 (—) percent predicted RV, the “Change From Baseline in Percent Predicted Residual Volume (RV), Mean (Standard Deviation)” value (Cohort 1: 200 mg QD, Cycle 51, Day 1, n=1) was 22.0 (—) percent predicted RV and the “Change From Baseline in Percent Predicted Residual Volume (RV), Mean (Standard Deviation)” value (Cohort 1: 200 mg QD, Cycle 52, Day 1, n=1) was −4.0 (—) percent predicted RV. The “Change From Baseline in Percent Predicted Residual Volume (RV), Mean (Standard Deviation)” value (Cohort 1: 200 mg QD, Cycle 53, Day 1, n=1) was 22.0 (—) percent predicted RV, the “Change From Baseline in Percent Predicted Residual Volume (RV), Mean (Standard Deviation)” value (Cohort 1: 200 mg QD, Cycle 54, Day 1, n=1) was 4.0 (—) percent predicted RV and the “Change From Baseline in Percent Predicted Residual Volume (RV), Mean (Standard Deviation)” value (Cohort 1: 200 mg QD, Cycle 55, Day 1, n=1) was 53.0 (—) percent predicted RV. For the same molecule, the “Change From Baseline in Percent Predicted Residual Volume (RV), Mean (Standard Deviation)” value (Cohort 1: 200 mg QD, Cycle 56, Day 1, n=1) was 17.0 (—) percent predicted RV, the “Change From Baseline in Percent Predicted Residual Volume (RV), Mean (Standard Deviation)” value (Cohort 1: 200 mg QD, Cycle 57, Day 1, n=1) was 18.0 (—) percent predicted RV and the “Change From Baseline in Percent Predicted Residual Volume (RV), Mean (Standard Deviation)” value (Cohort 1: 200 mg QD, Cycle 58, Day 1, n=1) was 4.0 (—) percent predicted RV. For the same molecule, the “Change From Baseline in Percent Predicted Residual Volume (RV), Mean (Standard Deviation)” value (Cohort 1: 200 mg QD, Cycle 60, Day 1, n=1) was −20.0 (—) percent predicted RV, the “Change From Baseline in Percent Predicted Residual Volume (RV), Mean (Standard Deviation)” value (Cohort 1: 200 mg QD, Cycle 61, Day 1, n=1) was −18.0 (—) percent predicted RV and the “Change From Baseline in Percent Predicted Residual Volume (RV), Mean (Standard Deviation)” value (Cohort 1: 200 mg QD, Cycle 62, Day 1, n=1) was −8.0 (—) percent predicted RV. For the same molecule, the “Change From Baseline in Percent Predicted Residual Volume (RV), Mean (Standard Deviation)” value (Cohort 1: 200 mg QD, Cycle 63, Day 1, n=1) was 6.0 (—) percent predicted RV, the “Change From Baseline in Percent Predicted Residual Volume (RV), Mean (Standard Deviation)” value (Cohort 1: 200 mg QD, Cycle 67, Day 1, n=1) was 2.0 (—) percent predicted RV and the “Change From Baseline in Percent Predicted Residual Volume (RV), Mean (Standard Deviation)” value (Cohort 1: 200 mg QD, EOT, n=11) was 6.3 (24.3) percent predicted RV. For the same molecule, the “Change From Baseline in Percent Predicted Residual Volume (RV), Mean (Standard Deviation)” value (Cohort 2: 200 mg BID, Cycle 3, Day 1, n=12) was −4.6 (18.8) percent predicted RV, the “Change From Baseline in Percent Predicted Residual Volume (RV), Mean (Standard Deviation)” value (Cohort 2: 200 mg BID, Cycle 5, Day 1, n=11) was −11.5 (26.9) percent predicted RV and the “Change From Baseline in Percent Predicted Residual Volume (RV), Mean (Standard Deviation)” value (Cohort 2: 200 mg BID, Cycle 7, Day 1, n=8) was −9.9 (17.1) percent predicted RV. The “Change From Baseline in Percent Predicted Residual Volume (RV), Mean (Standard Deviation)” value (Cohort 2: 200 mg BID, Cycle 8, Day 1, n=1) was −28.0 (—) percent predicted RV, the “Change From Baseline in Percent Predicted Residual Volume (RV), Mean (Standard Deviation)” value (Cohort 2: 200 mg BID, Cycle 9, Day 1, n=8) was −19.9 (24.3) percent predicted RV and the “Change From Baseline in Percent Predicted Residual Volume (RV), Mean (Standard Deviation)” value (Cohort 2: 200 mg BID, Cycle 10, Day 1, n=2) was −47.5 (0.7) percent predicted RV. The “Change From Baseline in Percent Predicted Residual Volume (RV), Mean (Standard Deviation)” value (Cohort 2: 200 mg BID, Cycle 11, Day 1, n=6) was −10.5 (28.3) percent predicted RV and the “Change From Baseline in Percent Predicted Residual Volume (RV), Mean (Standard Deviation)” value (Cohort 2: 200 mg BID, Cycle 12, Day 1, n=1) was −5.0 (—) percent predicted RV.
